As for `O=C(O)c1ccc2c(c1)nc(-c1ccc(Oc3cccc(OCc4ccncc4)c3)cc1)n2C1CCCCC1`, the melting point was 235 to 237 °C.

In turn, `CS(=O)(=O)CCC(=O)NCc1ccc(/C=C/C(c2cc(Cl)c(Cl)c(Cl)c2)C(F)(F)F)cc1Cl` (stereo not given) showed a melting point of 101 to 104 °C.

On to `Cc1cc(Cl)ccc1-c1cc(F)cc2c1NC(CN)CO2` (stereo not given), for which the melting point stood at 90 °C.

As for `O=C(NCC1Cc2ccc3c(c2O1)CCC3)OCc1ccccc1` (stereo not given), the melting point lay in the range of 99 to 101 °C.

In turn, `O=C1SCC(O)=C1Cc1ccc(Br)cc1` registered a melting point of 201 to 202 °C.

Molecule `N#CCCC(C#N)CSc1ccc(Cl)c(Cl)c1` (stereo not given) gave a melting point of 53 to 55 °C.

Regarding `C#CC(C)(C)NC(=O)c1cnc(N2CCC(N3C(=O)OCc4ccccc43)CC2)c(Cl)c1`, the melting point is 135 to 138 °C.

Take `CNC(=O)Oc1cc(C)c(NC(=O)COC)cc1C`: the melting point lay within 168 to 170 °C.

Regarding `CC(C)OC(=O)c1cc(-n2c(=O)[nH]c3c(c2=O)SCC3)c(F)cc1Cl`, the melting point lay within 252 to 254 °C.

Molecule `O=Cc1cc2cccc3ccc4cccc1c4c32` came in with a melting point of 172 to 174 °C.

In turn, `CCCCNS(=O)(=O)CC(O)C(O)C(CC1CCCCC1)NC(=O)c1ccccc1` (stereo not given) registered a melting point of 153 to 155 °C.

For the molecule `CC(C(=O)O)c1ccc2cc(OCC=Cc3ccccc3)ccc2c1` (stereo not given), the melting point fell in the range of 175 to 177 °C.

As for `OC(CCc1ccccc1)c1cnc2sc3c(n12)CCCC3` (stereo not given), the melting point lay within 152 to 153 °C.

On to `COc1ccc(N(CC(=O)NCC(=O)O)C(=O)c2ccc(Cl)cc2)cc1`, for which the melting point is 138 to 140 °C.

Regarding `CCOc1c2c(nc3c1cnn3CC)C(=O)c1ccccc1CC2`, the melting point fell in the range of 150 to 152 °C.

With `Cn1cc(-c2ccccc2)c(=O)c(-c2ccc([N+](=O)[O-])cc2)c1`, the melting point was 212 to 214 °C.

Turning to `NC(=O)C(CCC(=O)OCc1ccccc1)N1Cc2c(OCc3ccc(CN4CCOCC4)cc3)cccc2C1=O` (stereo not given), the melting point is 141 to 143 °C.

Consider `COC(=O)c1ccc(C#CC(O)c2cccc3c2OCCC3(C)C)cc1O` (stereo not given), for which the melting point lay within 122 to 123 °C.

`NC(=O)c1sc2cnccc2c1Oc1ccc(C(=O)N2CCOCC2)cc1`: the melting point is above 260 °C.

Molecule `COC(=O)c1cc(C#Cc2ccc(C(=O)OC(C)(C)C)cc2)cnc1Cl` yielded a melting point of 123 to 124 °C.

`O=C(O)C1=C(C(=O)Nc2ccc(Br)cc2F)CCCC1` yielded a melting point of 98 to 99 °C.

As to `O=C(NS(=O)(=O)C=Cc1ccccc1)N1CCC(CCCc2ccc(O)cc2)CC1`, the melting point is 132 to 135 °C.

Regarding `Cc1ccc(C(=O)N[C@H](CSCC(=O)OC(C)(C)C)CC(C)C)s1`, the melting point is 81 to 83 °C.

In turn, `N#CCC=C1c2ccccc2C=Cc2ccccc21` showed a melting point of 95 to 101 °C.

The molecule `O=C1N(Cc2ccc(OCc3ccccc3)cc2)c2ccccc2C12COc1cc3c(cc12)OCCO3` (stereo not given) gave a melting point of 87 to 89 °C.

`CC(=O)N(CC(=O)N1CC1C#N)c1ccccc1` (stereo not given) yielded a melting point of 69 to 75 °C.

As to `O=Cc1ccc2c(c1)N(C1CCN(CCc3ccccc3F)CC1)CC2`, the melting point is 86 to 87 °C.

In turn, `COc1ccc(CC2COCc3nc4c(N)nc5ccccc5c4n32)cc1` (stereo not given) registered a melting point of 115 to 130 °C.

In turn, `O=Cc1cc(Cl)c(Cl)c(Cl)n1` showed a melting point of 84 to 88 °C.

Regarding `O=C(Nc1cccc(S(=O)(=O)NCc2ccncc2)c1)c1cnn2c(C(F)F)cc(-c3ccc(C(F)(F)F)cc3)nc12`, the melting point was determined as 221 °C.

As to `Cc1c(NC(=O)CC(C)(C)C)cc2c(c1C)OCC2c1ccc(C(C)C)cc1` (stereo not given), the melting point lay in the range of 177 to 178 °C.

The molecule `CSc1ccc2c(c1)C(=O)c1cc3ccccc3cc1C2=O` displayed a melting point of 195 to 196 °C.

`CNC(=O)CNc1cccc2c1C(=O)N(C1CCC(=O)NC1=O)C2=O` (stereo not given) yielded a melting point of 210 to 212 °C.

For the molecule `COC(=O)CN1CN(c2ccccc2)C2(CCN(Cc3cccc4ccccc34)CC2)C1=O`, the melting point lay in the range of 122 to 135 °C.

`COc1cc(OC)cc(-c2nc(CCl)co2)c1` had a melting point of 85 to 86 °C.

Molecule `COc1cc2c(cc1OC)CN(c1nc(Cl)nc(N3CCc4cc(OC)c(OC)cc4C3)n1)CC2` displayed a melting point of 149 to 151 °C.

`O=C(O)c1ccc(NC(=O)C(F)(F)F)cc1` yielded a melting point of 277 to 278 °C.

On to `COc1cccc([C@H]2O[C@H](CC(=O)Nc3cc4c(c(CCC(=O)O)c3)CCCC4)C(=O)N(CC(C)(C)CO)c3ccc(Cl)cc32)c1OC`, for which the melting point lay within 160 to 162 °C.

`CSc1c(S)c(SC)c(SC)c(SC)c1SC`: the melting point was determined as 60 °C.

In turn, `CCNc1cc(NS(=O)(=O)c2ccc(N)cc2)nc(N)n1` returned a melting point of 272 to 274 °C.

`COc1ccc(C(=O)Nc2ccccc2)cc1` yielded a melting point of 156 to 158 °C.

Turning to `O=C(Nc1nc2c(ncn2CC(O)CF)c(=O)[nH]1)c1ccccc1` (racemic), the melting point came out at 178 °C.

On to `Cc1ccc(C#N)c(C)c1COC(=O)[C@H]1[C@@H](C=C(Cl)C(F)(F)F)C1(C)C` (relative stereo), for which the melting point worked out at 98 °C.

For the molecule `CC(=S)N[C@@H]1c2cc(C#N)ccc2OC(C)(C)[C@H]1O` (relative stereo), the melting point was 176 to 180 °C.

As to `CCS(=O)(=O)c1ccc(C(=O)C2C(=O)CCCC2=O)c(Cl)c1C1=NOC2OCCC12` (stereo not given), the melting point amounted to 99 °C.

With `CN1CCN(c2cc3nc4c(cc3cc2F)c(=O)c(C#N)cn4C)CC1`, the melting point amounted to 335 °C.

The molecule `CCc1ccc(-c2c(Cl)c(CCl)nc3sc4c(c23)CCN(C(=O)OCc2ccccc2)C4)cc1` yielded a melting point of 126 to 128 °C.

Regarding `FC(F)(F)c1cc(C(F)(F)F)c2[nH]c(N3CCN(c4ncccc4Br)CC3)nc2c1`, the melting point came out at 166 °C.

For `O=C1CN(c2ccc(Oc3ccccc3)cc2)C(=S)N1c1ccc([N+](=O)[O-])cc1`, the melting point is 204 °C.

For `CC(C(=O)O)c1ccc(O[Si](C)(C)C(C)(C)C)cc1` (stereo not given), the melting point is 52 to 54 °C.

`CC(=O)c1ccc(NS(C)(=O)=O)c(Oc2ccc(F)cc2)c1` yielded a melting point of 95 to 96 °C.

`Cc1cccc(-c2nc(NC(=O)Nc3ccccc3)sc2-c2ccnc(C)n2)c1` had a melting point of 141 to 142 °C.

`OC[C@H]1OC[C@@H](n2c(Br)nc3cc(Cl)c(Cl)cc32)[C@H](O)[C@@H]1O` registered a melting point of 207 to 209 °C.

For the molecule `O=C(O)/C(=C/c1cnc(-c2ccccc2)n1Cc1ccccc1Cl)Cc1ccccc1`, the melting point was in the range of 211 to 213 °C.

For `COc1ccc(F)cc1OCCNCCCc1c[nH]c2ccc(F)cc12`, the melting point was 119 to 122 °C.

Molecule `Nc1cc(OCc2ccccc2)c(C(=O)O)cc1Cl` yielded a melting point of 182 to 184 °C.

`O=C(Nc1c([N+](=O)[O-])cc(C(F)(F)F)cc1[N+](=O)[O-])C(F)(F)F` gave a melting point of 222 to 224 °C.

`CCn1nc(OCC(=O)C(C)(C)C)c(-c2ccc(F)cc2)c1-c1ccc(S(N)(=O)=O)cc1` registered a melting point of 196 to 198 °C.

Regarding `COc1ccc(C(Sc2cc(Oc3ccccc3)ccc2N)C(O)C(=O)O)cc1Cl` (stereo not given), the melting point was in the range of 168 to 170 °C.

With `COC(=O)c1ccc(C23CC4CC(CC(C4)C2)C3)c(O)c1`, the melting point fell in the range of 244 to 246 °C.

On to `CN(C)c1n[nH]c(=O)n1N`, for which the melting point turned out to be 205 °C.

`COC(=O)[C@@H]1C[C@H](OC(=O)c2ccsc2)C(=O)[C@H]2[C@@]1(C)CC[C@H]1C(=O)O[C@H](c3ccoc3)C[C@]21C` displayed a melting point of 211 to 212 °C.

Consider `CCCCC1=C(C=Cc2ccc(N(CCCC)CCCC)cc2OC)CC(C)(C)CC1=CC=CC1=C(C#N)C(=C(C#N)C#N)OC1(c1ccccc1)C(F)(F)F` (stereo not given), for which the melting point was in the range of 109 to 113 °C.

In turn, `CC[C@@H]1C(=O)N(Cc2ccc(OC)cc2OC)[C@H]1C(=O)O` (relative stereo) returned a melting point of 122 to 123 °C.

In turn, `Cn1c(-c2ccc(Cl)c(S(N)(=O)=O)c2)csc1=Nc1ccc(O)cc1` gave a melting point of 274 °C.

Molecule `COC(=O)c1ccc2cc(OCC(=O)O)ccc2c1` had a melting point above 285 °C.

In turn, `N#Cc1cc(C(F)(F)F)ccc1Oc1ccc([N+](=O)[O-])c(C(=O)O)c1` returned a melting point of 190 to 192 °C.

Molecule `Fc1ccc(CN2CCc3cc(OC[C@H]4CO[C@](Cn5ccnc5)(c5ccc(Cl)cc5Cl)O4)ccc3C2)cc1` (racemic) gave a melting point of 119 to 120 °C.

Consider `COc1cc2ncnc(N3CCN(C(=O)NCCc4ccc(Cl)cc4)CC3)c2cc1OC`, for which the melting point lay in the range of 177 to 178 °C.

Molecule `Cc1ccc(-c2ccc(C(=O)Nc3cc4ncc(CN5CCCC5)cc4cc3F)cc2)cc1` showed a melting point of 202 to 204 °C.

For `CNC(=O)n1sc(-c2ccccc2)nc1=O`, the melting point is 210 °C.

For `CCCn1nc(C(=O)c2cccc(O)c2)c2cccc(C(F)(F)F)c21`, the melting point was found to be 118 °C.

As for `CCOC(=O)C=Cc1ccc([N+](=O)[O-])c(O)c1`, the melting point was 95 °C.

`COC(=O)c1ccc(C#Cc2ccccc2)cc1` gave a melting point of 114 °C.

`CC(C)C12COc3cc(Cl)ccc3C1=NN(C(=O)Nc1ccc(C(F)(F)F)cc1)C2` (stereo not given) registered a melting point of 150 to 152 °C.

As for `COc1ccc(-c2c(C)c3ccc(OC(C)=O)c(O)c3oc2=O)c(OC)c1`, the melting point was 140 to 141 °C.

Turning to `CC1COC(Cn2nc[nH]c2=S)(c2ccc(Oc3ccc(Cl)cc3)cc2Cl)O1` (stereo not given), the melting point turned out to be 130 °C.

Molecule `CC(=O)c1ccc2c(c1)C(c1ccccc1F)=NC(C)(C)C(=O)N2` displayed a melting point of 59 °C.

`CC(=O)N(C)c1nc(C(C)(C)C)nn1-c1c(Cl)cc(Cl)cc1Cl` registered a melting point of 93 to 94 °C.

In turn, `CCOC(=O)c1nc(Br)n2c1c(=O)n(C)c1cc(C(F)(F)F)ccc12` yielded a melting point of 205 to 207 °C.

Regarding `CCCCCCCCCCc1ccnc(C(=O)NCC(=O)OCC)c1`, the melting point lay within 29 to 30 °C.

Take `O=C1N(Cc2ccc(C(F)(F)F)o2)c2c(C(F)(F)F)cccc2C12COc1cc3c(cc12)OCO3` (stereo not given): the melting point fell in the range of 95 to 98 °C.

In the case of `O=C(O)c1nccn1C(c1ccccc1)c1ccccc1`, the melting point stood at 191 °C.

As to `Cc1ccccc1NC(=NC#N)NC(NC(=O)Cc1ccc2c(c1)OCO2)C(C)(C)C` (stereo not given), the melting point lay within 152 to 153 °C.

Consider `COC(=O)Nc1cn2nc(OCc3cc(OC)ccc3OC)ccc2n1`, for which the melting point is 228 to 230 °C.

The melting point is the temperature of the solid-liquid transition.
